Reference: PMC7551932 (Toxins, 2020)
“Also recorded” adds a separate entry of the source. Where a SMILES comes first, the peptide text is derived from it. Bridges are numbered along the chain shown (N, C = ends). Where no end group is shown, it is not given here.

Columns and labels:
rNaV1.3 = target: T1, rNaV1.3 (Rattus norvegicus, UniProt P08104); experiment: cell-based; format: cell-based
T1 construct: expressed in transfected cells; host or cells: HEK293T

rNaV1.8 = format: cell-based, rat
hNaV1.5 = format: cell-based, human
[1] = tested on: TTX-S sodium channels (NaV1.2–1.4, NaV1.6, and NaV1.7); format: cell-based
NaV1.7 [2] = target: T2, NaV1.7 (Homo sapiens, UniProt Q15858); experiment: Time course of block and washout of NaV1.7 peak current; details: 100 nM toxin, n = 3
T2 sequence (Q07699 19-218): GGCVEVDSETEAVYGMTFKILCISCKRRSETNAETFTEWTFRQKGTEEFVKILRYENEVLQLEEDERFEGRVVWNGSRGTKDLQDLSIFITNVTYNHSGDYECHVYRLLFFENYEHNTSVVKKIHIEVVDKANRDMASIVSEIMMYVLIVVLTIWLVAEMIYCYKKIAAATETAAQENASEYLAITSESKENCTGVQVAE
T2 sequence (Q15858 other isoform, or with tags, fused parts or gaps): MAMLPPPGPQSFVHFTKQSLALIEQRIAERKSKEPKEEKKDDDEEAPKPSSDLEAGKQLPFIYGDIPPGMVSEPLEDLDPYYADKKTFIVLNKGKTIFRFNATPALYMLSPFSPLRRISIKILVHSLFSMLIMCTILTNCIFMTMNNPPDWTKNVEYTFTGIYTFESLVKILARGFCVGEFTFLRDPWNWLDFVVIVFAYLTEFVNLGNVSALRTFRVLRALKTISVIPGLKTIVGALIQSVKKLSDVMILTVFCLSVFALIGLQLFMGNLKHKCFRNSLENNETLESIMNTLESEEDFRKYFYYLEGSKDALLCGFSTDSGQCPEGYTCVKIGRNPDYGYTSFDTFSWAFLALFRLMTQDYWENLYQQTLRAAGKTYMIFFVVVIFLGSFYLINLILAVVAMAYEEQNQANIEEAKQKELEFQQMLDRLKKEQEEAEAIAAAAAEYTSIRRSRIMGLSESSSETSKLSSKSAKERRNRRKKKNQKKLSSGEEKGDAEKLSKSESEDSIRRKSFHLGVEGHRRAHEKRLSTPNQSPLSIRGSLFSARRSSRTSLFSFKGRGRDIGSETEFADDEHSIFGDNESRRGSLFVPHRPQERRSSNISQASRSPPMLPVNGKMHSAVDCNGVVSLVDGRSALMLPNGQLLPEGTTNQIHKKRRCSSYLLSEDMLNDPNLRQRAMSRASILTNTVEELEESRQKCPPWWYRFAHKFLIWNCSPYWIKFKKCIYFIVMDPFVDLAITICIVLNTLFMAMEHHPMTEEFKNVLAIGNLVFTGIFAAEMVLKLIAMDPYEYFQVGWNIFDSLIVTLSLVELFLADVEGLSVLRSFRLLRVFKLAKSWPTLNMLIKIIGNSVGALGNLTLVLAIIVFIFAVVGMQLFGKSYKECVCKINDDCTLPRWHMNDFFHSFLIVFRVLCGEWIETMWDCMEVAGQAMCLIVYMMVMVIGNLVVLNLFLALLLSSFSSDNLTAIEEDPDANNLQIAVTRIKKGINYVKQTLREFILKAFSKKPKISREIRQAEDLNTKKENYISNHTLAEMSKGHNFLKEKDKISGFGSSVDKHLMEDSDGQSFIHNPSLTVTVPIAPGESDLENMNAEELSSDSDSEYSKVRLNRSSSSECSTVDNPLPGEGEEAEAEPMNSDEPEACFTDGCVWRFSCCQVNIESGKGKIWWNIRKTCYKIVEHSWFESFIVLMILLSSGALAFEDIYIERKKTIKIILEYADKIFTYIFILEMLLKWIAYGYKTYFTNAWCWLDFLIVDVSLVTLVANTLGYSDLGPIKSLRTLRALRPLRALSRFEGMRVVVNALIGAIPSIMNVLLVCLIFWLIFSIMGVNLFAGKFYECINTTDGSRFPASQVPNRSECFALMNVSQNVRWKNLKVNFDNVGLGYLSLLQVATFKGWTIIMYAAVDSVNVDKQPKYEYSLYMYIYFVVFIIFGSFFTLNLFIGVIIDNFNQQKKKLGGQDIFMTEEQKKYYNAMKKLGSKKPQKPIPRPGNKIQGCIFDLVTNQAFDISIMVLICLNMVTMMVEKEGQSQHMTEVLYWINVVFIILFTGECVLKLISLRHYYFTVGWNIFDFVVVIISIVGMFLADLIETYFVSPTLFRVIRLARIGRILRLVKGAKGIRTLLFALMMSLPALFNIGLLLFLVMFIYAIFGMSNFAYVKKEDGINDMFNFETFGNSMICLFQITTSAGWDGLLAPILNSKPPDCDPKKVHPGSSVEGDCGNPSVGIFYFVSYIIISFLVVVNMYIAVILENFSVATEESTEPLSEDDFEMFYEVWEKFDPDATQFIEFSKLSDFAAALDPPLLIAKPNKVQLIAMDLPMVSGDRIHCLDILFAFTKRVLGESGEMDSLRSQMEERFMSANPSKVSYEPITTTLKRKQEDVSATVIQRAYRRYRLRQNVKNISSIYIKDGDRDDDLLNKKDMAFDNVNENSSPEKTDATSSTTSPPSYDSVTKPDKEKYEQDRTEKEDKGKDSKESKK
T2 sequence (O60939 30-215, further chain): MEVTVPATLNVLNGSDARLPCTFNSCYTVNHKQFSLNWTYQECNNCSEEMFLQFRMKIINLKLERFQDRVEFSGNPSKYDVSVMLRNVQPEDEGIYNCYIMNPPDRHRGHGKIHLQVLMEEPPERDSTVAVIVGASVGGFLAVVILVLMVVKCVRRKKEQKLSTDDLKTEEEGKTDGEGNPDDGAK

hNaV1.9 = format: cell-based, human
NaV1.7 over NaV1.4 = experiment: Selectivity of NaV1.7 over NaV1.4; format: cell-based; details: Cl6a
[3] = tested on: TTX-R sodium channels (NaV1.5, NaV1.8, and NaV1.9); format: cell-based
rNaV1.4 = target: T3, rNaV1.4 (Rattus norvegicus, UniProt P15390); experiment: cell-based; format: cell-based
T3 construct: expressed in transfected cells; host or cells: HEK293T

rNaV1.2 = target: T4, rNaV1.2 (Rattus norvegicus, UniProt P04775); experiment: cell-based; format: cell-based
T4 construct: expressed in transfected cells; host or cells: HEK293T

mNaV1.6 = target: T5, mNaV1.6 (Mus musculus, UniProt Q9WTU3); experiment: cell-based; format: cell-based
T5 construct: expressed in transfected cells; host or cells: HEK293T

NaV1.7 [4] = target: T2, NaV1.7; experiment: NaV1.7 gating kinetics (I–V, activation, inactivation, repriming); details: 10 nM toxin; for Reduction of NaV1.7 channel current: at –5 mV, n = 10
hNaV1.7 = target: T6, hNaV1.7 (Homo sapiens, UniProt Q15858); experiment: cell-based; format: cell-based
T6 construct: expressed in transfected cells; host or cells: HEK293T
T6 sequence (Q15858 other isoform, or with tags, fused parts or gaps): as the sequence (Q15858 other isoform, or with tags, fused parts or gaps) above
T6 sequence (O60939 30-215, further chain): as the sequence (O60939 30-215, further chain) above
T6 sequence (Q07699 19-218, further chain): as the sequence (Q07699 19-218) above

N-type calcium channels = details: cited from earlier work
[5] = tested on: TTX-sensitive sodium channel; details: cited from earlier work
NaV1.7 [6] = details: cited from earlier work

T1 sequence (P08104 whole entry): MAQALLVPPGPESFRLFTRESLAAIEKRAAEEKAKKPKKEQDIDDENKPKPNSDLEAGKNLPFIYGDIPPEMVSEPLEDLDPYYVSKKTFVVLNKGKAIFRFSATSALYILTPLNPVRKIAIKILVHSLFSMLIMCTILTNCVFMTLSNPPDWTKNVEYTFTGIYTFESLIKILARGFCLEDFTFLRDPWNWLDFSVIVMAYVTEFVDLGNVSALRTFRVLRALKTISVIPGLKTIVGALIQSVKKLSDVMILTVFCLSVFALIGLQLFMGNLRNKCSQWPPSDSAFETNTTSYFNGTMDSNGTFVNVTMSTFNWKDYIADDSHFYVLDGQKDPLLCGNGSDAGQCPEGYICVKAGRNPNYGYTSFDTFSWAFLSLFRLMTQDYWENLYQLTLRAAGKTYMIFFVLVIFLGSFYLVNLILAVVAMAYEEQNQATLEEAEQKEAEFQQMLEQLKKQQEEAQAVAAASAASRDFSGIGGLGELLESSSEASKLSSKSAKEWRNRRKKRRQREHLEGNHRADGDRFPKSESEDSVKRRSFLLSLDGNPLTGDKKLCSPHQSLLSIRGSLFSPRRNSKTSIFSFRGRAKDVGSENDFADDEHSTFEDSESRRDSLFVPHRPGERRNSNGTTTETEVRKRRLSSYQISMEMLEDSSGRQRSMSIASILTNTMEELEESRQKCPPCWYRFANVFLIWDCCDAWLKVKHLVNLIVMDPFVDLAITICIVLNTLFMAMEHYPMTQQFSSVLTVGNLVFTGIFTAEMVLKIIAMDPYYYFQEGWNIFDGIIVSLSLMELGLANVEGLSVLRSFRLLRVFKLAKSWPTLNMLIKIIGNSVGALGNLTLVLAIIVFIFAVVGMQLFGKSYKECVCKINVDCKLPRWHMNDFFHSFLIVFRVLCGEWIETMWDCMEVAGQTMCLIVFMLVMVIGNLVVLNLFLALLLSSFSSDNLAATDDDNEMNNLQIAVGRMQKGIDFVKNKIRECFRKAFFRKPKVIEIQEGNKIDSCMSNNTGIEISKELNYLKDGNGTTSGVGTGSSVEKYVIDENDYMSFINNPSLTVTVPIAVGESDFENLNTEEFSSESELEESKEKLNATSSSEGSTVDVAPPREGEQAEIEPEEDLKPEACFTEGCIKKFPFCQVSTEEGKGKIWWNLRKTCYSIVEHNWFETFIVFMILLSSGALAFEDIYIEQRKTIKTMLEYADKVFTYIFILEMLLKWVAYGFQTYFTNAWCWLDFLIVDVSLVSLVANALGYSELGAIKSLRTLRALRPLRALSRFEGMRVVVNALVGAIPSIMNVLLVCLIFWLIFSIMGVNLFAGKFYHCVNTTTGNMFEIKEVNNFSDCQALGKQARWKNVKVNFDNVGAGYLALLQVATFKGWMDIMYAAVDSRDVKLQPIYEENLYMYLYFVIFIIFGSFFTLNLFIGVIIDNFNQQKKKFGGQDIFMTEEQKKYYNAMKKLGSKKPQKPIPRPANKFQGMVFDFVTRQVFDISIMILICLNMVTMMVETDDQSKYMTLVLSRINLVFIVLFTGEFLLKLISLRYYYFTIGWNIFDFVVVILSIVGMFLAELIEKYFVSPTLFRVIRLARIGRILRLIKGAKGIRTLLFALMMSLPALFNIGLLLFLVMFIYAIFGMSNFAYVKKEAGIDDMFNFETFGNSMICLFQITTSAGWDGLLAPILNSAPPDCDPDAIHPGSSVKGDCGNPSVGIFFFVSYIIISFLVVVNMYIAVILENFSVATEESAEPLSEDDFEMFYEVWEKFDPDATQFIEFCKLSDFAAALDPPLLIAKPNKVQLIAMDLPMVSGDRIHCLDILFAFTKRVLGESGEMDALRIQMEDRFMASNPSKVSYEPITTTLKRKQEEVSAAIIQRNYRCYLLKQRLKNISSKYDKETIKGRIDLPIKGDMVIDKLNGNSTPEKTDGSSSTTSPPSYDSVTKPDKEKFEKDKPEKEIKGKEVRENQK

Compound: CC[C@H](C)[C@H](NC(=O)[C@H](CCCCN)NC(=O)[C@H](Cc1c[nH]c2ccccc12)NC(=O)[C@H](CCCCN)NC(=O)[C@@H]1CSSC[C@@H]2NC(=O)[C@H](CCC(=O)O)NC(=O)[C@H](CC(N)=O)NC(=O)[C@H](CCCCN)NC(=O)CNC(=O)[C@@H]3CCCN3C(=O)[C@H]([C@@H](C)O)NC(=O)[C@@H]3CSSC[C@H](NC(=O)[C@H](C(C)C)NC(=O)[C@H](CCCNC(=N)N)NC(=O)[C@H](CC(N)=O)NC(=O)[C@@H]4CCCN4C(=O)[C@H](CSSC[C@H](NC(=O)[C@H](C)N)C(=O)N[C@@H](CCCCN)C(=O)NCC(=O)N[C@@H](C(C)C)C(=O)N[C@@H](Cc4ccccc4)C(=O)N[C@@H](CC(=O)O)C(=O)N4CCC[C@H]4C(=O)N3)NC2=O)C(=O)N[C@@H](CO)C(=O)N[C@@H](CC(=O)O)C(=O)N[C@@H](CCCCN)C(=O)N[C@@H](Cc2c[nH]cn2)C(=O)N[C@@H](CCCCN)C(=O)N[C@@H](Cc2c[nH]c3ccccc23)C(=O)N1)C(=O)O [Cl6a] (H-ACKGVFDPCTPGKNECCPNRVCSDKHKWCKWKI-OH; disulfide 2-17, 9-22, 16-29; N-terminus and C-terminus assumed)
- IC50 (rNaV1.3): 75.9 ± 6.3 nM
- Inhibition of rNaV1.3 current (rNaV1.3): decreased
- Inhibition of rNaV1.8 current (rNaV1.8): No inhibitory effects
- Inhibition of hNaV1.5 current (hNaV1.5): No inhibitory effects
- Inhibition of TTX-S sodium channels [1]: can inhibit TTX-S, but not TTX-R, sodium channels; also recorded: inhibitors of tetrodotoxin-sensitive (TTX-S), but not TTX-resistant, sodium channels; also recorded: inhibited TTX-S (NaV1.2–1.4, NaV1.6, and NaV1.7)
- Reversibility of NaV1.7 inhibition on washing (NaV1.7 [2]; 5 min wash with bath solution): irreversibly inhibit NaV1.7 channel currents; also recorded: irreversible; also recorded: sustained inhibition of NaV1.7 channel currents
- τon (onset of NaV1.7 peak current inhibition) (NaV1.7 [2]; mean ± SEM): 36.2 ± 5.3 s
- Inhibition of hNaV1.9 current (hNaV1.9): No inhibitory effects
- Fold selectivity over NaV1.4 (NaV1.7 over NaV1.4): ~ 40 fold
- Inhibition of TTX-R sodium channels [3]: not TTX-R (NaV1.5, NaV1.8, and NaV1.9)
- IC50 (rNaV1.4): 480 ± 100 nM
- Inhibition of rNaV1.4 current (rNaV1.4): decreased
- IC50 (rNaV1.2): 56.1 ± 13.6 nM
- Inhibition of rNaV1.2 current (rNaV1.2): decreased
- IC50 (mNaV1.6): 9.2 ± 1.3 nM
- Inhibition of mNaV1.6 current (mNaV1.6): completely inhibited
- Voltage dependence of activation, k (toxin) (NaV1.7 [4]; NaV1.7, mean ± SEM, n = 6–10, control 6.2 ± 0.3 (Cl6a), 6.7 ± 0.4 (Cl6b)): 7.3 ± 0.4 mV
- Voltage dependence of inactivation, k (toxin) (NaV1.7 [4]; NaV1.7, mean ± SEM, n = 6–10, control −5.4 ± 0.3 (Cl6a), −5.2 ± 0.3 (Cl6b)): −5.7 ± 0.4 mV
- Voltage dependence of activation, V1/2 (toxin) (NaV1.7 [4]; NaV1.7, mean ± SEM, n = 6–10, control −19.5 ± 1.5 (Cl6a), −16.3 ± 0.4 (Cl6b)): −22.3 ± 1.7 mV
- Voltage dependence of inactivation, V1/2 (toxin) (NaV1.7 [4]; NaV1.7, mean ± SEM, n = 6–10, control −78.3 ± 1.8 (Cl6a), −70.1 ± 1.5 (Cl6b)): −81.6 ± 2.4 mV
- Repriming (toxin) (NaV1.7 [4]; NaV1.7, recovery at −100 mV, test pulse −10 mV, mean ± SEM, n = 9 (Cl6a), n = 7 (Cl6b), control 14.9 ± 2.4 (Cl6a), 6.3 ± 0.9 (Cl6b)): 17.6 ± 2.5 ms
- Reduction of NaV1.7 channel current (NaV1.7 [4]): 52.3%
- Effect on NaV1.7 activation and inactivation (gating) (NaV1.7 [4]; n = 6–10): does not alter channel activation, inactivation, or repriming kinetics; also recorded: cannot significantly change the activation kinetics
- IC50 (hNaV1.7): 11 ± 2.5 nM
- Inhibition of hNaV1.7 current (hNaV1.7): completely inhibited

Compound: CC[C@H](C)[C@H](NC(=O)[C@H](CCCCN)NC(=O)[C@H](Cc1ccc(O)cc1)NC(=O)[C@H](CCCCN)NC(=O)[C@@H]1CSSC[C@@H]2NC(=O)[C@H](CCC(=O)O)NC(=O)[C@H](CC(=O)O)NC(=O)[C@H](CCCCN)NC(=O)CNC(=O)[C@@H]3CCCN3C(=O)[C@H]([C@@H](C)O)NC(=O)[C@@H]3CSSC[C@H](NC(=O)[C@H](C(C)C)NC(=O)[C@H](Cc4c[nH]cn4)NC(=O)[C@H](CC(N)=O)NC(=O)[C@@H]4CCCN4C(=O)[C@H](CSSC[C@H](NC(=O)[C@H](C)N)C(=O)N[C@@H](CCCCN)C(=O)NCC(=O)N[C@@H]([C@@H](C)CC)C(=O)N[C@@H](Cc4ccccc4)C(=O)N[C@@H](C(C)C)C(=O)N[C@@H]([C@@H](C)O)C(=O)N3)NC2=O)C(=O)N[C@@H](CO)C(=O)N[C@@H](CO)C(=O)N[C@@H](CCCCN)C(=O)N[C@@H](Cc2c[nH]cn2)C(=O)N[C@@H](CCCCN)C(=O)N[C@@H](Cc2c[nH]c3ccccc23)C(=O)N1)C(=O)O [Cl6b] (H-ACKGIFVTCTPGKDECCPNHVCSSKHKWCKYKI-OH; disulfide 2-17, 9-22, 16-29)
- Reduction of NaV1.7 channel current (NaV1.7 [4]): 49.7%

Compound: HWTX-I (ACKGVFDACTPGKNECCPNRVCSDKHKWCKWKL; ends and bridges not checked; cysteine pairing not given here; UniProt P56676 49-81, looked up)
- N-type calcium channel inhibition (N-type calcium channels): inhibitor of N-type calcium channels
- TTX-sensitive sodium channel inhibition [5]: inhibitor of N-type calcium channels and a TTX-sensitive sodium channel

Compound: HWTX-IV
- Binding site on NaV1.7 (NaV1.7 [6]): site 4 toxins that interact with the DII S3–S4 linker of NaV1.7 channels
